Active and inactive are the calls of the source. No cut-off for these calls is given here.
Legend:
[1] = system: Klebsiella pneumoniae; test: Antibacterial activity against Klebsiella pneumoniae assessed as zone of inhibition by measuring activity index after 24 to 48 hrs by well diffusion method relative to amoxicillin; assay type: functional, organism-based
[2] = system: Staphylococcus epidermidis; test: Antibacterial activity against Staphylococcus epidermidis assessed as zone of inhibition after 24 to 48 hrs by well diffusion method; assay type: functional
[3] = system: Serratia marcescens; test: Antibacterial activity against Serratia marcescens assessed as zone of inhibition after 24 to 48 hrs by well diffusion method; assay type: functional
[4] = system: Klebsiella pneumoniae; test: Antibacterial activity against Klebsiella pneumoniae assessed as zone of inhibition by measuring activity index after 24 to 48 hrs by well diffusion method relative to tetracycline; assay type: functional, organism-based
[5] = system: Serratia marcescens; test: Antibacterial activity against Serratia marcescens assessed as zone of inhibition by measuring activity index after 24 to 48 hrs by well diffusion method relative to ampicillin; assay type: functional
[6] = system: Staphylococcus epidermidis; test: Antibacterial activity against Staphylococcus epidermidis assessed as zone of inhibition by measuring activity index after 24 to 48 hrs by well diffusion method relative to ampicillin; assay type: functional, organism-based
[7] = system: Staphylococcus aureus; test: Antibacterial activity against Staphylococcus aureus assessed as zone of inhibition after 24 to 48 hrs by well diffusion method; assay type: functional
[8] = system: Klebsiella pneumoniae; test: Antibacterial activity against Klebsiella pneumoniae assessed as zone of inhibition after 24 to 48 hrs by well diffusion method; assay type: functional
[9] = system: NCI-H157; test: Cytotoxicity against human NCI-H157 cells at 100 uM after 48 hrs by sulforhodamine B assay; assay type: functional
[10] = system: Pseudomonas aeruginosa; test: Antibacterial activity against Pseudomonas aeruginosa assessed as zone of inhibition after 24 to 48 hrs by well diffusion method; assay type: functional
[11] = system: NCI-H157; test: Cytotoxicity against human NCI-H157 cells after 48 hrs by sulforhodamine B assay; assay type: functional, cell-based
[12] = system: Klebsiella pneumoniae; test: Antibacterial activity against Klebsiella pneumoniae assessed as zone of inhibition by measuring activity index after 24 to 48 hrs by well diffusion method relative to ampicillin; assay type: functional, organism-based
[13] = system: Escherichia coli; test: Antibacterial activity against Escherichia coli assessed as zone of inhibition after 24 to 48 hrs by well diffusion method; assay type: functional
[14] = system: Serratia marcescens; test: Antibacterial activity against Serratia marcescens assessed as zone of inhibition by measuring activity index after 24 to 48 hrs by well diffusion method relative to amoxicillin; assay type: functional
[15] = system: Leishmania major; test: Antileishmanial activity against Leishmania major promastigotes at 10 uM after 72 hrs by MTT assay relative to control; assay type: functional
[16] = system: Escherichia coli; test: Antibacterial activity against Escherichia coli assessed as zone of inhibition by measuring activity index after 24 to 48 hrs by well diffusion method relative to tetracycline; assay type: functional
[17] = system: NCI-H157; test: Cytotoxicity against human NCI-H157 cells at 10 uM after 48 hrs by sulforhodamine B assay; assay type: functional
[18] = system: NCI-H157; test: Cytotoxicity against human NCI-H157 cells at 1 uM after 48 hrs by sulforhodamine B assay; assay type: functional
[19] = system: Leishmania major; test: Antileishmanial activity against Leishmania major promastigotes at 100 uM after 72 hrs by MTT assay relative to control; assay type: functional
[20] = system: DNA; test: Binding affinity to single-stranded DNA (unknown origin) assessed as red shift up to 72 uM after 10 mins by UV-visible spectrometric method; assay type: nucleic-acid assay
[21] = system: Leishmania major; test: Antileishmanial activity against Leishmania major promastigotes at 0.1 uM after 72 hrs by MTT assay relative to control; assay type: functional
[22] = system: NCI-H157; test: Cytotoxicity against human NCI-H157 cells at 0.1 uM after 48 hrs by sulforhodamine B assay; assay type: functional
[23] = system: DNA; test: Binding affinity to single-stranded DNA (unknown origin) after 10 mins by UV-visible spectrometric method; assay type: nucleic-acid assay
[24] = system: Serratia marcescens; test: Antibacterial activity against Serratia marcescens assessed as zone of inhibition by measuring activity index after 24 to 48 hrs by well diffusion method relative to penicillin G; assay type: functional
[25] = system: Streptococcus pyogenes; test: Antibacterial activity against Streptococcus pyogenes assessed as zone of inhibition after 24 to 48 hrs by well diffusion method; assay type: functional
[26] = system: Staphylococcus epidermidis; test: Antibacterial activity against Staphylococcus epidermidis assessed as zone of inhibition by measuring activity index after 24 to 48 hrs by well diffusion method relative to penicillin G; assay type: functional, organism-based
[27] = system: Pseudomonas aeruginosa; test: Antibacterial activity against Pseudomonas aeruginosa assessed as zone of inhibition by measuring activity index after 24 to 48 hrs by well diffusion method relative to tetracycline; assay type: functional, organism-based
[28] = system: Leishmania major; test: Antileishmanial activity against Leishmania major promastigotes at 1 uM after 72 hrs by MTT assay relative to control; assay type: functional
[29] = system: Pseudomonas aeruginosa; test: Antibacterial activity against Pseudomonas aeruginosa assessed as zone of inhibition by measuring activity index after 24 to 48 hrs by well diffusion method relative to amoxicillin; assay type: functional, organism-based
[30] = system: Pseudomonas aeruginosa; test: Antibacterial activity against Pseudomonas aeruginosa assessed as zone of inhibition by measuring activity index after 24 to 48 hrs by well diffusion method relative to penicillin G; assay type: functional, organism-based
[31] = system: Staphylococcus epidermidis; test: Antibacterial activity against Staphylococcus epidermidis assessed as zone of inhibition by measuring activity index after 24 to 48 hrs by well diffusion method relative to amoxicillin; assay type: functional, organism-based
[32] = system: Staphylococcus aureus; test: Antibacterial activity against Staphylococcus aureus assessed as zone of inhibition by measuring activity index after 24 to 48 hrs by well diffusion method relative to ampicillin; assay type: functional, organism-based
[33] = system: Staphylococcus aureus; test: Antibacterial activity against Staphylococcus aureus assessed as zone of inhibition by measuring activity index after 24 to 48 hrs by well diffusion method relative to penicillin G; assay type: functional, organism-based
[34] = system: Staphylococcus epidermidis; test: Antibacterial activity against Staphylococcus epidermidis assessed as zone of inhibition by measuring activity index after 24 to 48 hrs by well diffusion method relative to tetracycline; assay type: functional, organism-based
[35] = system: Staphylococcus aureus; test: Antibacterial activity against Staphylococcus aureus assessed as zone of inhibition by measuring activity index after 24 to 48 hrs by well diffusion method relative to tetracycline; assay type: functional, organism-based
[36] = system: Staphylococcus aureus; test: Antibacterial activity against Staphylococcus aureus assessed as zone of inhibition by measuring activity index after 24 to 48 hrs by well diffusion method relative to amoxicillin; assay type: functional, organism-based
[37] = system: Serratia marcescens; test: Antibacterial activity against Serratia marcescens assessed as zone of inhibition by measuring activity index after 24 to 48 hrs by well diffusion method relative to tetracycline; assay type: functional, organism-based
[38] = system: Streptococcus pyogenes; test: Antibacterial activity against Streptococcus pyogenes assessed as zone of inhibition by measuring activity index after 24 to 48 hrs by well diffusion method relative to amoxicillin; assay type: functional, organism-based
[39] = system: Escherichia coli; test: Antibacterial activity against Escherichia coli assessed as zone of inhibition by measuring activity index after 24 to 48 hrs by well diffusion method relative to ampicillin; assay type: functional, organism-based
[40] = system: Streptococcus pyogenes; test: Antibacterial activity against Streptococcus pyogenes assessed as zone of inhibition by measuring activity index after 24 to 48 hrs by well diffusion method relative to tetracycline; assay type: functional, organism-based
[41] = system: Escherichia coli; test: Antibacterial activity against Escherichia coli assessed as zone of inhibition by measuring activity index after 24 to 48 hrs by well diffusion method relative to amoxicillin; assay type: functional, organism-based
[42] = system: Pseudomonas aeruginosa; test: Antibacterial activity against Pseudomonas aeruginosa assessed as zone of inhibition by measuring activity index after 24 to 48 hrs by well diffusion method relative to ampicillin; assay type: functional, organism-based
[43] = system: Klebsiella pneumoniae; test: Antibacterial activity against Klebsiella pneumoniae assessed as zone of inhibition by measuring activity index after 24 to 48 hrs by well diffusion method relative to penicillin G; assay type: functional, organism-based
[44] = system: Streptococcus pyogenes; test: Antibacterial activity against Streptococcus pyogenes assessed as zone of inhibition by measuring activity index after 24 to 48 hrs by well diffusion method relative to penicillin G; assay type: functional, organism-based
[45] = system: Escherichia coli; test: Antibacterial activity against Escherichia coli assessed as zone of inhibition by measuring activity index after 24 to 48 hrs by well diffusion method relative to penicillin G; assay type: functional, organism-based
[46] = system: Streptococcus pyogenes; test: Antibacterial activity against Streptococcus pyogenes assessed as zone of inhibition by measuring activity index after 24 to 48 hrs by well diffusion method relative to ampicillin; assay type: functional, organism-based

Substance	Activity index [1]	inhibition zone (IZ) [2]	inhibition zone (IZ) [3]	Activity index [4]	inhibition zone (IZ) [7]	inhibition zone (IZ) [8]	Activity [9] [%]	inhibition zone (IZ) [10]	Activity [11]	Activity index [12]	inhibition zone (IZ) [13]	Activity [15] [%]	Activity [17] [%]	Activity [18] [%]	Activity [19] [%]	Activity [21] [%]	Activity [22] [%]	inhibition zone (IZ) [25]	Activity [28] [%]	Activity index [31]	further results
(1,10-Phenanthroline) trimethylstannyl 2-(4-methoxy-2-nitrophenylcarbamoyl)benzoate	4.61	inactive	20 mm	1.98	5.66 mm	27.7 mm	55.5	11.3 mm	Dose-dependent effect	4.61	20.7 mm	58.4	52.4	47.1	52.7	56.2	44	15 mm	57.9	–	Activity index [5]: 2.5; Activity_index [6]: inactive; Activity index [14]: 3.34; Activity index [16]: 10.3; Activity [20]: < 3 nm; K [23]: 2.5 ×10⁴ /M; Activity index [24]: 2.5; Activity_index [26]: inactive; Activity index [27]: 1.89; Activity index [29]: 1.89; Activity index [30]: 1.89
Tricyclohexylstannyl 2-(4-methoxy-2-nitrophenylcarbamoyl)benzoate	3.09	12.3 mm	inactive	1.32	inactive	18.5 mm	59.3	18.7 mm	Dose-dependent effect	3.09	inactive	63.5	54	50.6	67.8	55.2	43.6	16.7 mm	58.8	6.17	Activity_index [32]: inactive; Activity_index [33]: inactive; Activity index [34]: 1.23; Activity_index [35]: inactive; Activity_index [36]: inactive; Activity index [27]: 3.11; Activity_index [37]: inactive; Activity index [29]: 3.11; Activity index [30]: 3.11
Divinylstannanediyl bis 2-(4-methoxy-2-nitrophenylcarbamoyl)benzoate	–	14.2 mm	11 mm	–	inactive	inactive	64.3	inactive	Dose-dependent effect	–	inactive	55.4	61	58.3	60.9	43.3	55.4	inactive	48.8	7.11	Activity index [5]: 1.37; Activity_index [32]: inactive; Activity_index [38]: inactive; Activity index [14]: 1.84; Activity_index [39]: inactive; Activity_index [33]: inactive; Activity_index [40]: inactive; Activity index [34]: 1.42; Activity_index [41]: inactive; Activity_index [42]: inactive; Activity_index [35]: inactive; Activity_index [43]: inactive; Activity_index [44]: inactive; Activity_index [36]: inactive; Activity index [24]: 1.37; Activity_index [45]: inactive; Activity_index [46]: inactive
Dimethylstannanediyl bis 2-(4-methoxy-2-nitrophenylcarbamoyl)benzoate	4.2	13.3 mm	inactive	1.8	13.7 mm	25.2 mm	55.6	inactive	Dose-dependent effect	4.2	1.77 mm	54.7	53.4	51.2	62.3	48.4	48.9	inactive	51.6	6.65	Activity_index [38]: inactive; Activity_index [39]: inactive; Activity index [16]: 0.88; Activity_index [40]: inactive; Activity index [34]: 1.33; Activity_index [41]: inactive; Activity_index [42]: inactive; Activity_index [44]: inactive; Activity_index [45]: inactive; Activity_index [46]: inactive; Activity_index [37]: inactive

From ChEMBL document CHEMBL4138175, “Newly designed organotin(IV) carboxylates with peptide linkage: Synthesis, structural elucidation, physicochemical characterizations and pharmacological investigations” (Eur J Med Chem, 2018)
